Test results published in patent US10774064B2 (Cadent Therapeutics, Inc., priority 2016, dated 2020).

Target: T1, small-conductance Ca2+-activated K+ channels (SK channels, subtype 2) (Homo sapiens, UniProt Q9H2S1)
T1 construct: expressed in transfected cells; host or cells: HEK293
Assay: whole-cell patch-clamp of ionic current through SK2 channels in HEK293 cells (SC100)
Assay type: cell-based
Conditions: concentration that increases the basal current by 100%; HEK293 cells expressing SK2 channels
In short: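 SC100, the concentration doubling basal current (a 100% increase), was taken from SK2 currents recorded by whole-cell patch-clamp in SK2-expressing HEK293 cells.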

SC100 | Structure (SMILES)
+ (+ means >1 uM) | CCc1cc(C)n(-c2nc(C)cc(NC3CCC(F)(F)CC3)n2)n1 [Compound 249, N-(4,4-difluorocyclohexyl)-2-(3-ethyl-5-methyl-1H-pyrazol-1-yl)-6-methyl pyrimidin-4-amine]
+ (+ means >1 uM) | Cc1cc(NC2CCC(F)(F)CC2)nc(-n2ccc(C(C)(C)O)n2)n1 [Compound 215, 2-(1-(4-((4,4-difluorocyclohexyl)amino)-6-methylpyrimidin-2-yl)-1H-pyrazol-3-yl)propan-2-ol]
+ (+ means >1 uM) | Cc1cc(C)n(-c2nc(NC3CCC(F)(F)CC3)cc(N[C@H]3CCN(C)C3=O)n2)n1 (single isomer, unassigned) [Compound 128, (+)-3-((6-((4,4-difluorocyclohexyl)amino)-2-(3,5-dimethyl-1H-pyrazol-1-yl)pyrimidin-4-yl)amino)-1-methylpyrrolidin-2-one]
+++ (+++ means <200 nM) | Cn1cnc2c(NC3CCC(F)(F)CC3)nc(-n3ccc(CF)n3)cc21 [Compound 286, N-(4,4-difluorocyclohexyl)-6-(3-(fluoromethyl)-1H-pyrazol-1-yl)-1-methyl-1H-imidazo[4,5-c]pyridin-4-amine]
+ (+ means >1 uM) | Cc1cc(NC2CCC(F)(F)CC2)nc(-n2ccc(C(C)O)n2)n1 (centres unmarked) [Compound 202, 1-(1-(4-((4,4-difluorocyclohexyl)amino)-6-methylpyrimidin-2-yl)-1H-pyrazol-3-yl)ethan-1-ol]
++ (++ means 200 nM-1000 nM) | Cc1cc(NC2CCC(F)(F)CC2)nc(-n2nc(Br)cc2C)n1 [Compound 220, 2-(3-bromo-5-methyl-1H-pyrazol-1-yl)-N-(4,4-difluorocyclohexyl)-6-methylpyrimidin-4-amine]
+ (+ means >1 uM) | Cc1cc(C)n(-c2nc(NC3CCC(F)(F)CC3)cc(NC(C)C(N)=O)n2)n1 (centres unmarked) [Compound 109, 2-((6-((4,4-difluorocyclohexyl)amino)-2-(3,5-dimethyl-1H-pyrazol-1-yl)pyrimidin-4-yl)amino)propanamide]
++ (++ means 200 nM-1000 nM) | CC(=O)N1CC(Oc2cc(NC3CCC(F)(F)CC3)nc(-n3ccc(CF)n3)n2)C1 [Compound 289, 1-(3-((6-((4,4-difluorocyclohexyl)amino)-2-(3-(fluoromethyl)-1H-pyrazol-1-yl)pyrimidin-4-yl)oxy)azetidin-1-yl)ethan-1-one]

Continued, compound first:

Structure (SMILES) | SC100
Cc1cc(NC2CCC(F)(F)C2)nc(-n2nc(C)cc2C)n1 (centres unmarked) [Compound 172] | + (+ means >1 uM)
Cc1cc(NC2CCC(F)(F)C2)nc(-n2ccc(C)n2)n1 (centres unmarked) [Compound 150, N-(3,3-difluorocyclopentyl)-6-methyl-2-(3-methyl-1H-pyrazol-1-yl)pyrimidin-4-amine] | + (+ means >1 uM)
Cc1cc(C)n(-c2nc(NC3CCC(F)(F)CC3)cc(N3CCOC(C(C)(C)O)C3)n2)n1 (centres unmarked) [Compound 227, 2-(4-(6-((4,4-difluorocyclohexyl)amino)-2-(3,5-dimethyl-1H-pyrazol-1-yl)pyrimidin-4-yl)morpholin-2-yl)propan-2-ol] | ++ (++ means 200 nM-1000 nM)
Cc1cc(NC2CCC(F)(F)CC2)nc(-n2ccc(CO)n2)n1 [Compound 204, (1-(4-((4,4-difluorocyclohexyl)amino)-6-methylpyrimidin-2-yl)-1H-pyrazol-3-yl)methanol] | + (+ means >1 uM)
Cc1cc(C)n(-c2cc(C(O)c3ncco3)cc(NC3CCC(F)(F)CC3)n2)n1 (centres unmarked) [Compound 343, (2-((4,4-difluorocyclohexyl)amino)-6-(3,5-dimethyl-1H-pyrazol-1-yl)pyridin-4-yl)(oxazol-2-yl)methanol] | ++ (++ means 200 nM-1000 nM)

Same assay, conditions: whole-cell patch-clamp, HEK293 cells expressing SK2 channels; concentration that increases the basal current by 100%

SC100 (μM) | Structure (SMILES)
+ (+ means >1 uM) | Cc1ccn(-c2cc(S(=O)(=O)N3CCC(F)(F)CC3)cc(N3CCOCC3)n2)n1 [NSSy6489, 4-(4-((4,4-difluoropiperidin-1-yl)sulfonyl)-6-(3-methyl-1H-pyrazol-1-yl)pyridin-2-yl)morpholine]
++ (++ means 200 nM-1000 nM) | Cc1ccn(-c2cc(C(O)c3nnc(C)o3)cc(NC3CCC(F)(F)CC3)n2)n1 (centres unmarked) [NSSy6576]
++ (++ means 200 nM-1000 nM) | C=Cc1cc(NC2CCC(F)(F)CC2)nc(-n2ccc(C)n2)n1 [IN11053-052-P1]
++ (++ means 200 nM-1000 nM) | CC(=O)N1CCCC(OCc2cc(NC3CCC(F)(F)CC3)nc(-n3ccc(C)n3)c2)C1 (centres unmarked) [IN11067-003-P1]
++ (++ means 200 nM-1000 nM) | COCc1cc(-n2ccc(C)n2)nc(NC2CCC(F)(F)CC2)n1 [NSSy6744, N-(4,4-difluorocyclohexyl)-4-(methoxymethyl)-6-(3-methyl-1H-pyrazol-1-yl)pyrimidin-2-amine]
+ (+ means >1 uM) | Cc1ccn(-c2cc(CN3CCCOC3=O)cc(NC3CCC(F)(F)CC3)n2)n1 [IN11083-014-P1]
++ (++ means 200 nM-1000 nM) | Cc1nsc(-c2nc(NC3CCC(F)(F)CC3)cc(N3CCN4C(=O)OCC4C3)n2)n1 (centres unmarked) [NSSy6178]
+ (+ means >1 uM) | COc1cnc(-n2ccc(C3CC3)n2)nc1NC1CCC(F)(F)CC1 [NSSy7063]
++ (++ means 200 nM-1000 nM) | COc1nc(-c2nc(C)cs2)nc(NC2CCC(F)(F)CC2)c1F [IN11039-058-P1, N-(4,4-difluorocyclohexyl)-5-fluoro-6-methoxy-2-(4-methylthiazol-2-yl)pyrimidin-4-amine]
+++ (+++ means <200 nM) | CSc1cc(NC2CCC(F)(F)CC2)nc(-c2nc(C)cs2)c1 [IN11147-026-P1, N-(4,4-difluorocyclohexyl)-6-(4-methylthiazol-2-yl)-4-(methylthio)pyridin-2-amine]
+ (+ means >1 uM) | Cc1cc(C)n(-c2cc(N3CCOCC3)nc(NC3CCC(F)(F)CC3)n2)n1 [NSSy6389]
+ (+ means >1 uM) | Cc1ccn(-c2cc(N3CCOCC3)cc(C(O)c3ccc(F)cc3)n2)n1 (centres unmarked) [NSSy6472, (4-fluorophenyl) (6-(3-methyl-1H-pyrazol-1-yl)-4-morpholinopyridin-2-yl) methanol]
+ (+ means >1 uM) | Cc1cc(C)n(-c2cc(N3CC4(COC4)C3)nc(NC3CCC(F)CC3)n2)n1 (centres unmarked) [NSSy6471, 4-(3,5-dimethyl-1H-pyrazol-1-yl)-N-(4-fluorocyclohexyl)-6-(2-oxa-6-azaspiro[3.3]heptan-6-yl)pyrimidin-2-amine]
+ (+ means >1 uM) | Cc1ccn(-c2nc(NC3CCCCC3C)cc(C(C)O)n2)n1 (centres unmarked) [IN10880-059-P1]
++ (++ means 200 nM-1000 nM) | Cc1cc(C)n(-c2nc(NC3CCC(F)(F)CC3)cc(N3CCOC(C#N)C3)n2)n1 (centres unmarked) [IN10971-081-P1, 4-(6-((4,4-difluorocyclohexyl)amino)-2-(3,5-dimethyl-1H-pyrazol-1-yl)pyrimidin-4-yl) morpholine-2-carbonitrile]
+ (+ means >1 uM) | Cc1nccc(-c2cc(N3CCOCC3)cc(NC3CCC(F)(F)CC3)n2)n1 [IN11104-095-P1, N-(4,4-difluorocyclohexyl)-6-(2-methylpyrimidin-4-yl)-4-morpholinopyridin-2-amine]

More lines, now with the values behind:

Structure (SMILES) | SC100 (μM)
FCc1ccn(-c2nc(NC3CCC(F)(F)CC3)cc(OC3CC(F)(F)C3)n2)n1 [NSSy5619, 6-(3,3-difluorocyclobutoxy)-N-(4,4-difluorocyclohexyl)-2-(3-(fluoromethyl)-1H-pyrazol-1-yl)pyrimidin-4-amine] | + (+ means >1 uM)
COc1cnc(-n2nc(C)c(F)c2C)nc1NC1CCC(F)(F)CC1 [NSSy7042] | + (+ means >1 uM)
COc1cc(NC2CCCCC2)nc(-c2nc(C)cs2)n1 [IN11067-035-P1] | ++ (++ means 200 nM-1000 nM)
FC1(F)CCC(Nc2cc(N3CCOCC3)nc(-c3ccco3)n2)CC1 [IN10971-060-P1, N-(4,4-difluorocyclohexyl)-2-(furan-2-yl)-6-morpholinopyrimidin-4-amine] | + (+ means >1 uM)
Cc1csc(-c2nc(NC3CCCC(F)(F)C3)cc(N3CCOCC3)n2)n1 (centres unmarked) [IN10966-028-P1] | ++ (++ means 200 nM-1000 nM)
Cc1ccn(-c2nc(C(C)O)cc(N3CCCCC3)n2)n1 (centres unmarked) [IN10882-055-P1] | + (+ means >1 uM)
Cc1csc(-c2nc(NC3CCC(F)(F)CC3)cc(OCc3cnnn3C)n2)n1 [NSSy5625] | +++ (+++ means <200 nM)
COC(=O)N1CC(Oc2cc(NC3CCCCC3)nc(-c3nccs3)n2)C1 [NSSy6166, methyl 3-((6-(cyclohexylamino)-2-(thiazol-2-yl)pyrimidin-4-yl)oxy) azetidine-1-carboxylate] | + (+ means >1 uM)
COCC1CN(c2cc(NC3CCC(F)(F)CC3)nc(-c3nc(C)cs3)n2)CCN1C (centres unmarked) [IN10864-060-P1] | +++ (+++ means <200 nM)
CCOCCc1cc(NC2CCC(F)(F)CC2)nc(-n2ccc(C3CC3)n2)n1 [IN11217-069-P1, 2-(3-cyclopropyl-1H-pyrazol-1-yl)-N-(4,4-difluorocyclohexyl)-6-(2-ethoxyethyl)pyrimidin-4-amine] | + (+ means >1 uM)
CNC(=O)Oc1c(NC2CCC(F)(F)CC2)nc(-c2nc(C)cs2)nc1OC [IN11106-065-P1, 4-((4,4-difluorocyclohexyl)amino)-6-methoxy-2-(4-methylthiazol-2-yl)pyrimidin-5-yl methylcarbamate] | + (+ means >1 uM)
Cc1cc(C)n(-c2cc(Cc3ncco3)cc(NC3CCC(F)(F)CC3)n2)n1 [NSSy5645, N-(4,4-difluorocyclohexyl)-6-(3,5-dimethyl-1H-pyrazol-1-yl)-4-(oxazol-2-ylmethyl)pyridin-2-amine] | ++ (++ means 200 nM-1000 nM)
Cc1csc(-c2nc(NC3CCC(F)(F)CC3)cc(C(O)c3ccccc3)n2)n1 (centres unmarked) [IN10971-033-P1, (6-((4,4-difluorocyclohexyl)amino)-2-(4-methylthiazol-2-yl)pyrimidin-4-yl) (phenyl) methanol] | + (+ means >1 uM)
Cc1csc(-c2nc(NC3CCCCC3(F)F)cc(N3CCOCC3)n2)n1 (centres unmarked) [IN11140-066-P1] | + (+ means >1 uM)
CCOc1cc(-n2ccc(C)n2)nc(NC2CCC(F)(F)CC2)n1 [NSSy6625] | + (+ means >1 uM)
